From patent US10617763B2, “Compositions and methods for the treatment of presbyopia” (Presbyopia Therapies, LLC, priority 2013, dated 2020)
Several values for one entry are separate records, joined by “and”; a condition that tells them apart may be missing. Equal values may be shown once. Read-outs that look alike come from different tables or passages of the source.

Tests used:
[1] = tested on: eye; details: cited from earlier work
[2] = tested on: eye; assay: Compositions containing mannitol with various nonionic surfactants (Example 15, Table 10); design: species or system human; details: in vivo
Excerpt: Example 15. Use of a Compound Containing Mannitol with Various Nonionic Surfactants Compositions
Of those tested only Brij® 35 was marginal due to the significant corneal irritation, hyperemia and […] that resulted.
Duration was excellent for each nonionic surfactant tested.

[3] = tested on: eye; assay: Modulation of aceclidine concentrations in a preferred embodiment (Example 6); format: in vivo, human
Protocol: Example 6 Modulation of Aceclidine Concentrations in a Preferred Embodiment
For 1.35% w/v aceclidine— • Stinging on topical instillation 0.25/4.0 (lasting about 2-5 seconds); • Induced redness at 10 minutes: 1.0 to 1.5/4.0; • Induced redness at 30 minutes: 0.0 to 0.25/4.0; • Comfort: very high. • Wetting: very high, the eye maintaining sensation of improved wetting for most of a 24 hour period after a single topical instillation. • Depth of Focus distance: excellent. • Depth of Focus near: excellent.
In testing the above formulations on several subjects it was discovered that there is a slight range in clinical effect depending on the concentration of aceclidine, where 1.35%-1.55% w/v aceclidine is preferred, but for which 1.35% w/v and 1.45% w/v confer the desired benefits on most subjects.
Further, it is discovered that the clinical effect of 1.35% w/v aceclidine can be improved when instilled as follows: […]

[4] = tested on: eye; details: for indoor night vision: pH 7.5; for dimming: pH 7.0
Excerpt: However, because α-2 agonists are shifted to their ionized equilibrium an acidic pH is somewhat offset by the fact such agonists exert greater affect at neutral or alkaline pH. Therefore each α-2 agonist has a preferred pH range depending on its lipophilicity and pKa value when added to the inventive compositions with aceclidine.

[5] = tested on: eye; assay: Effect of concentration of aceclidine and tropicamide, topical instillation (Example 2); format: in vivo, human
Excerpt: (§1) All baseline vision data was based on vision corrected with distance contact lenses.

[6] = tested on: eye; assay: Effect of concentration of aceclidine, brimonidine, guanfacine, fadolmidine, tropicamide and additives (Example 3); format: in vivo, human
Protocol: All percentages are w/v. Scores for nasal congestion, stinging initial, stinging, 3 min, redness initial, redness 15 min, whitening, pain and overall are out of 4.
“pt” reflects size of print materials, 4 being equivalent to 20/20 vision and 3 to 20/15 vision.
D/C stands for discontinued after eye washing due to intolerable stinging.
as §1
AB4T and AB6T were repeated both monocularly and binocularly.

[7] = tested on: presbyopic subjects; assay: Effect of aceclidine on vision of subjects aged 47 to 67 years (Example 1); format: in vivo, human; details: for L Post Dist / L Post Near / R Post Dist / R Post Near: Post Gtt 15″; for L Post Dist: left eye distance vision; for L Post Near: left eye near vision; for R Post Dist: right eye distance vision; for R Post Near: right eye near vision; for Effect: duration of effect
Protocol: Example 1 Effect of Aceclidine on Vision of Subjects Aged 47 to 67 Years
As aceclidine is an […], the clinical effectiveness may vary with different ratios. For the present studies a nearly exact 50:50 ratio of stereoisomers was measured as best determined by polarimetry.
After administration of the composition all subjects experienced an improvement in their near vision that lasted from 7 to 12 hours.

[8] = tested on: emmetrope over the age of 45; assay: Effects of pilocarpine and aceclidine with or without tropicamide and carrier on near and distance vision (FIG. 1); format: in vivo, human
Excerpt: Subject is an emmetrope over the age of 45 with a baseline near vision of 20.100 and baseline distance vision of 20.20. Topical administration to the eye of 1% w/v pilocarpine in saline solution results in an improvement of near vision to 20.40 (8a), however this improvement comes at the expense of a reduction in distance vision to 20.100 (8b). […] A proper drug carrier can also have a beneficial effect.

[9] = Stability of aceclidine in cold chain storage, HPLC (Example 10); format: physicochemical; details: Example 10 composition
Protocol: Example 10 Stabile Aceclidine Formulations
20 samples of the above composition were divided evenly and stored at 25° C. and 4° C. Prior to storage, initial concentrations of aceclidine were measured using […] (“HPLC”). The amount of aceclidine in each solution was calculated by the area under the principal peak compared to a reference solution of aceclidine. Samples were then subject to storage for 3 months. Aceclidine measurements were taken at 1, 2 and 3 months.

[10] = aceclidine 1.1% w/v plus 0.125% w/v tropicamide (subjects 4 and 5)
[11] = aceclidine 1.5% w/v, same vehicle, one subject

Q: Which results are given for `CC[C@@H]1C(=O)OC[C@@H]1Cc1cncn1C` [pilocarpine]?
A: distance blur ([1]; pilocarpine instilled monocularly): 2-3 lines; pupil size ([1]; upon instillation of 1.0% pilocarpine, most subjects): ≥ 2.3 mm

Q: Which results are given for Poloxamer 407?
A: Redness 1 hr [2]: 1; Stinging [2]: 0.5

Q: Which “Redness 1 hr” value [2] does the source give for Polyoxyl 35 castor oil here?
A: 0.25

Q: And the Stinging [2]?
A: 0

Q: Which “Redness 1 hr” value [2] does the source give for Tyloxapol here?
A: 0.25-2.5

Q: What about the Stinging [2] of the same molecule?
A: 0-2

Q: Which “Redness 1 hr” value [2] does the source give for Poloxamer 188 here?
A: 0.25-2.5

Q: And the Stinging [2]?
A: 0-2

Q: For `CC(=O)OC1CN2CCC1CC2` (racemic) [Aceclidine, aceclidine], which Comfort ([3]; 1.35% w/v aceclidine) is on record?
A: very high

Q: And the “Depth of Focus distance” value ([3]; 1.35% w/v aceclidine)?
A: excellent

Q: What about the “Depth of Focus near” value ([3]; 1.35% w/v aceclidine) of the same molecule?
A: excellent

Q: And the “Stinging on topical instillation” value ([3]; 1.35% w/v aceclidine in the preferred embodiment of Example 6, lasting about 2-5 seconds)?
A: 0.25 /4.0

Q: What about the anterior chamber shallowing ([4]; with further inclusion of a cycloplegic agent) of the same molecule?
A: 0.04 mm

Q: What about the “Time (hr)” value ([5]; duration of the effect) of the same molecule?
A: at least 10 hr

Q: And the “Miosis (OU) (1 hr)” value ([5]; pupil size, both eyes, 1 hour after topical instillation, baseline pupil 3 mm photopic, 5 mm mesopic)?
A: 1.63 mm

Q: And the near vision improvement ([6]; aceclidine 1.25% w/v (not shown))?
A: 20.25-20.30

Q: What about the “duration of corrected near and distance vision to 20.20 or better” value ([6]; aceclidine 1.55% w/v) of the same molecule?
A: at least 6 hours

Q: And the “size of the pupil” value ([6]; aceclidine 1.55% w/v, 30 minutes after topical instillation)?
A: about 1.63 mm

Q: And the “duration (hrs)” value ([6]; in vivo)?
A: about 7.5 hrs

Q: And the “L Post Dist” value [7, 10]?
A: 20.15 and 20.20

Q: And the “L Post Dist” value [7, 11]?
A: 20.20 (2×) and 20.30 and 20.25 (2×)

Q: And the “L Post Near” value [7, 10]?
A: 20.15 and 20.25

Q: What about the “L Post Near” value [7, 11] of the same molecule?
A: 20.15 (3×) and 20.30 and 20.20

Q: What about the “R Post Dist” value [7, 10] of the same molecule?
A: 20.15 and 20.20

Q: What about the “R Post Dist” value ([7]; aceclidine 1.5% w/v in 5.5% HPβCD, 0.75% CMC, 0.25% NaCl, 0.01% BAK, one subject) of the same molecule?
A: 20.20 (3×) and 20.25 (2×)

Q: And the “R Post Near” value [7, 10]?
A: 20.20 and 20.25

Q: What about the “R Post Near” value [7, 11] of the same molecule?
A: 20.15 (3×) and 20.20 and 20.25

Q: And the “Effect” value [7, 10]?
A: 12.00 h and 7.00 h

Q: What about the “Effect” value [7, 11] of the same molecule?
A: 8.00 h (4×) and 9.00 h

Q: What about the “time period of near vision improvement” value ([8]; 1.55% w/v aceclidine in saline solution) of the same molecule?
A: 6 h

Q: And the near vision ([8]; aceclidine in carrier plus 0.042% w/v tropicamide)?
A: 20.15

Q: And the near vision ([8]; aceclidine in carrier: 5.5% HPβCD, 0.75% CMC, 0.25% NaCl, 0.01% BAK)?
A: better than 20.20

Q: What about the distance vision ([8]; miotic in saline solution (1% w/v pilocarpine; 1.55% w/v aceclidine), baseline distance vision 20.20) of the same molecule?
A: without any effect on the baseline distance vision

Q: What about the near vision ([8]; miotic in saline solution (1% w/v pilocarpine; 1.55% w/v aceclidine), baseline near vision 20.100) of the same molecule?
A: 20.40

Q: What about the “aceclidine remaining, 4° C., 1 month” value [9] of the same molecule?
A: 93%

Q: And the “aceclidine remaining, 4° C., 2 months” value [9]?
A: 92%

Q: And the “aceclidine remaining, 4° C., 3 months” value [9]?
A: 88%

Q: What about the “aceclidine remaining, 4° C., Initial” value [9] of the same molecule?
A: 100%

Q: And the “aceclidine remaining, 25° C., 1 month” value [9]?
A: 92%

Q: And the “aceclidine remaining, 25° C., 2 months” value [9]?
A: 75%

Q: And the “aceclidine remaining, 25° C., 3 months” value [9]?
A: 50%

Q: What about the “aceclidine remaining, 25° C., Initial” value ([9]; pH about 4.75) of the same molecule?
A: 100%

Q: Which results are given for Polysorbate 80?
A: Redness 1 hr [2]: 0.5; Stinging [2]: 0.25

Q: For `Brc1c(NC2=NCCN2)ccc2nccnc12` [brimonidine], which “rebound redness, patients” value ([1]; brimonidine 0.20% w/v (Alphagan®) twice daily) is on record?
A: 25%

Q: And the “tachyphylaxis of pupil modulation, treated subjects” value ([1]; brimonidine 0.20% w/v topically for night vision, within four weeks of use)?
A: ~100%

Q: With tropicamide as the molecule, how does the indoor night vision ([4]; 0.035% w/v tropicamide in 1.55% w/v aceclidine composition) read?
A: slight dimming

Q: And the dimming ([4]; 0.040% w/v tropicamide in 1.53% or 1.45% w/v aceclidine composition)?
A: moderate dimming

Q: What about the indoor night vision ([4]; 0.042% w/v tropicamide in 1.55% w/v aceclidine composition) of the same molecule?
A: normal indoor night vision

Q: And the dimming ([4]; 0.044% w/v tropicamide in 1.53% or 1.45% w/v aceclidine composition)?
A: dimming became almost undetectable

Q: And the brow ache ([4]; tropicamide 0.01% w/v with aceclidine)?
A: slightly reduce brow ache

Q: What about the brow ache ([4]; tropicamide 0.030% w/v with aceclidine) of the same molecule?
A: further reduce brow ache

Q: What about the brow ache ([4]; tropicamide 0.04% to about 0.07% w/v with aceclidine) of the same molecule?
A: completely eliminate brow ache
